Our source for the IC50 values is patent US20230079819A1, “COMPOUNDS AND USES THEREOF” (Foghorn Therapeutics Inc., priority 2019, published 2023).

A value given as a limit tells only on which side of the number the result lay.

The target in test [1] is T1, BRM (Homo sapiens, UniProt P51531).
T1 construct: made in house; host or cells: High Five insect cells
Put plainly: ATPase catalytic activity of BRM, ADP-Glo in vitro biochemical assay. Particulars: ATPase catalytic activity, 30 nM BRM, 400 μM ATP, read-out: BRM IP50 (μM)*. In general terms: ADP-Glo first removes unused ATP, then detects ADP through luciferase.

The target of test [2] is T2, BRG-1 (Homo sapiens, UniProt P51532).
T2 construct: made in house; host or cells: High Five insect cells
T2 sequence (P51532 whole entry): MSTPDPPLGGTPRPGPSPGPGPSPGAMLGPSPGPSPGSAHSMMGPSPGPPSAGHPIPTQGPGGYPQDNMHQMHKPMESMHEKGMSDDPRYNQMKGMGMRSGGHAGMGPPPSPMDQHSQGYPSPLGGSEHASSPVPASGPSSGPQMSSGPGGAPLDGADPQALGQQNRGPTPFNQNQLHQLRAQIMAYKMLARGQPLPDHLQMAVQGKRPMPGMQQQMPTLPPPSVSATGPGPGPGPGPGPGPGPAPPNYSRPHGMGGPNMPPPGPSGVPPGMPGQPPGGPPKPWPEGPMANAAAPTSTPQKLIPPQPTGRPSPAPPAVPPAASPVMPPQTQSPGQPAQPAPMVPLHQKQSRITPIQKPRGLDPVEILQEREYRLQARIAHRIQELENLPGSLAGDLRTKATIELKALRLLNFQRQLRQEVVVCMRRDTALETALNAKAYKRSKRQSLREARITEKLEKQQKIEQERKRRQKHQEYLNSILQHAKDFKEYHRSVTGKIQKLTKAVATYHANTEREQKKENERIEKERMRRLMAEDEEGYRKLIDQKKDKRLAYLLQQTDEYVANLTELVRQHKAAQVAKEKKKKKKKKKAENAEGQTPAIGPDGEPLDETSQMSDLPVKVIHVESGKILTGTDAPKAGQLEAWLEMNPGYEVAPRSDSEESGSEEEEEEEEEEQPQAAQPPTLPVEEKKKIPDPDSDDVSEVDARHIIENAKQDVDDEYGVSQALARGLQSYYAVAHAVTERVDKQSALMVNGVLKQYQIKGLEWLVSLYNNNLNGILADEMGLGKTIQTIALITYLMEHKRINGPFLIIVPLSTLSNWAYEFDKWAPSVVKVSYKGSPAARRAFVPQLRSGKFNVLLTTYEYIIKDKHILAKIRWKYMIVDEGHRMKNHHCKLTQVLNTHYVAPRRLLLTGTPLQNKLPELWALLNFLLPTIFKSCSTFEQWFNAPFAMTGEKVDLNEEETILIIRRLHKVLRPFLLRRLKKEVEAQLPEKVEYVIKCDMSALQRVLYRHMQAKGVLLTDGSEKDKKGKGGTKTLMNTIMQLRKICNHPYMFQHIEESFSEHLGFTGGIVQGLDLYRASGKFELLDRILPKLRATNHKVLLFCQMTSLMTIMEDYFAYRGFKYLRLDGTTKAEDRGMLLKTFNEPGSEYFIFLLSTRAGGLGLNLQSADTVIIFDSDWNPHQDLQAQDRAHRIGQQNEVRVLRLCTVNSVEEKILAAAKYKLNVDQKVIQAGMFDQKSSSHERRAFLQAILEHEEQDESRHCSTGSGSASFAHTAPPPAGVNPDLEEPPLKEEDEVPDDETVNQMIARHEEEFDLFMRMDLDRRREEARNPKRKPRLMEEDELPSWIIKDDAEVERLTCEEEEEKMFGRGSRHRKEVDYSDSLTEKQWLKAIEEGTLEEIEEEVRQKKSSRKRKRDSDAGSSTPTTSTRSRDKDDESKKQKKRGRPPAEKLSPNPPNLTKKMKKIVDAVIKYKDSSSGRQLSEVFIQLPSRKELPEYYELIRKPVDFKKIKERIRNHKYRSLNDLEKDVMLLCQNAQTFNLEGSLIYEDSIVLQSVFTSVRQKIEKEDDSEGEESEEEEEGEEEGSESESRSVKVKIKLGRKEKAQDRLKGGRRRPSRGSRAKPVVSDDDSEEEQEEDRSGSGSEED
Put plainly: ATPase catalytic activity of BRG-1, ADP-Glo in vitro biochemical assay. The note with it: ATPase catalytic activity, 30 nM BRG-1, 400 μM ATP, read-out: BRG1 IP50 (μM)*.

T1 sequence (P51531 whole entry): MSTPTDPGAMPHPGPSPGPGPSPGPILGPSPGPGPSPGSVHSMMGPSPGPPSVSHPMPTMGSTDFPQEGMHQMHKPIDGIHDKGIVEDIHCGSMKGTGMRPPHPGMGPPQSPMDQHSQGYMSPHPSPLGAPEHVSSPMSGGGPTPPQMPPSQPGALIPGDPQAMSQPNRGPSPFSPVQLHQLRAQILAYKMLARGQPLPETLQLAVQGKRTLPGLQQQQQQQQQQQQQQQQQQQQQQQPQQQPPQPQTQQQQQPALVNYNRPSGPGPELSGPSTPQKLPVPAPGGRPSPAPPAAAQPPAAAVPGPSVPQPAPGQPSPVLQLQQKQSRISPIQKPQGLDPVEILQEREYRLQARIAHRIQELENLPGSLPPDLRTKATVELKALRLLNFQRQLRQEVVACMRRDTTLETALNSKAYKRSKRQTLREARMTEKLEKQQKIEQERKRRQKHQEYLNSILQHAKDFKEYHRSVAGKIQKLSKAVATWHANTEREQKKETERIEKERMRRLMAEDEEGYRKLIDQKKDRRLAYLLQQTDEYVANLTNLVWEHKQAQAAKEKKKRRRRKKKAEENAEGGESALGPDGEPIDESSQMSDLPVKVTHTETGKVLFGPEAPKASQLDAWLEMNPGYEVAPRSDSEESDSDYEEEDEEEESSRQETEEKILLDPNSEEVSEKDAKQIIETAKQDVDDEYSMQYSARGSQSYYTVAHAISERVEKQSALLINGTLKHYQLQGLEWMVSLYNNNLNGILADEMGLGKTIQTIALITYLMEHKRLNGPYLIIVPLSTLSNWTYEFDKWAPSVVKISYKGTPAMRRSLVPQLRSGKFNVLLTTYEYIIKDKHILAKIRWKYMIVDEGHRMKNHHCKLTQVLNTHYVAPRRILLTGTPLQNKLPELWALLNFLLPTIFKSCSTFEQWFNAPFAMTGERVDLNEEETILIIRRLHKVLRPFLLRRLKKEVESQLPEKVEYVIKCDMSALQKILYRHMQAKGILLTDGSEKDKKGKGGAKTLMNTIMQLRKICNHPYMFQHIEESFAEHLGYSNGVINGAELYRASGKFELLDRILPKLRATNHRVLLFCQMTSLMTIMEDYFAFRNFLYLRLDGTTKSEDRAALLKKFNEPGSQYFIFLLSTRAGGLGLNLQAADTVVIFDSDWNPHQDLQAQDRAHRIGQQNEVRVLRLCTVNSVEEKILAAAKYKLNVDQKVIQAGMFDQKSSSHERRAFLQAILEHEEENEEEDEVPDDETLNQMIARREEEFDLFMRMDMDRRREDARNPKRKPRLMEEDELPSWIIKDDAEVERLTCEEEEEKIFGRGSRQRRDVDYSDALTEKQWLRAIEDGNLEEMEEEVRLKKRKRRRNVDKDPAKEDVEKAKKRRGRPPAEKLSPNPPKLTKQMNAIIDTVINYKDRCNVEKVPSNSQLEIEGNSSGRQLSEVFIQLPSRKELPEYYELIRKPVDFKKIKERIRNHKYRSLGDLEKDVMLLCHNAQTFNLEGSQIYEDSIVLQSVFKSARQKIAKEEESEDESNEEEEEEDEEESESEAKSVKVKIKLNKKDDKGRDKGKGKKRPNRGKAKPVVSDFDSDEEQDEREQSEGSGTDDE

Take `CC(C)(C)C[C@H](NC(=O)c1ccn(S(C)(=O)=O)c1)C(=O)Nc1nc(-c2cccc(-c3ccncc3)c2)cs1` [Compound 76, (S)—N-(4,4-dimethyl-1-oxo-1-((4-(3-(pyridin-4-yl)phenyl)thiazol-2-yl)amino)pentan-2-yl)-1-(methylsulfonyl)-1H-pyrrole-3-carboxamide]: the IC50 in test [1] and in test [2] was more than 0.01 µM in each case.

As for `CN(C)CCC(NC(=O)c1ccn(S(C)(=O)=O)c1)C(=O)Nc1nc(-c2cccc(-c3ccncc3)c2)cs1` (stereo not shown) [Compound 77, N-(4-(dimethylamino)-1-oxo-1-((4-(3-(pyridin-4-yl)phenyl)thiazol-2-yl)amino)butan-2-yl)-1-(methylsulfonyl)-1H-pyrrole-3-carboxamide], the IC50 in test [1] and in test [2] was more than 0.01 µM throughout.

In the case of `CN(C)CC[C@H](NC(=O)c1ccn(S(C)(=O)=O)c1)C(=O)Nc1nc(-c2cccc(-c3ccncc3)c2)cs1` [Compound 78, (S)—N-(4-(dimethylamino)-1-oxo-1-((4-(3-(pyridin-4-yl)phenyl)thiazol-2-yl)amino)butan-2-yl)-1-(methylsulfonyl)-1H-pyrrole-3-carboxamide], the IC50 in test [1] and in test [2] was more than 0.01 µM throughout.

Consider `CN(C)CC[C@@H](NC(=O)c1ccn(S(C)(=O)=O)c1)C(=O)Nc1nc(-c2cccc(-c3ccncc3)c2)cs1` [Compound 79, (R)—N-(4-(dimethylamino)-1-oxo-1-((4-(3-(pyridin-4-yl)phenyl)thiazol-2-yl)amino)butan-2-yl)-1-(methylsulfonyl)-1H-pyrrole-3-carboxamide], for which the IC50 in test [1] and in test [2] was more than 0.1 µM each time.

For the compound `Cc1cc(-c2cccc(-c3csc(NC(=O)CNC(=O)c4ccn(S(C)(=O)=O)c4)n3)c2)cc(C)n1` [Compound 81, N-(2-((4-(3-(2,6-dimethylpyridin-4-yl)phenyl)thiazol-2-yl)amino)-2-oxoethyl)-1-(methylsulfonyl)-1H-pyrrole-3-carboxamide], the IC50 in test [1] and in test [2] was less than 0.01 µM throughout.

Turning to `CS(=O)(=O)n1ccc(C(=O)NCC(=O)Nc2nc(-c3cccc(-c4ccnc(C(F)(F)F)c4)c3)cs2)c1` [Compound 82, 1-(methylsulfonyl)-N-(2-oxo-2-((4-(3-(2-(trifluoromethyl)pyridin-4-yl)phenyl)thiazol-2-yl)amino)ethyl)-1H-pyrrole-3-carboxamide], the IC50 in test [1] and in test [2] was less than 0.01 µM in each case.

As to `Cn1cc(-c2cccc(-c3csc(NC(=O)CNC(=O)c4ccn(C(C)(C)C)c4)n3)c2)cn1` [Compound 83, 1-(tert-butyl)-N-(2-((4-(3-(1-methyl-1H-pyrazol-4-yl)phenyl)thiazol-2-yl)amino)-2-oxoethyl)-1H-pyrrole-3-carboxamide], the IC50 in test [1] and in test [2] was more than 0.01 µM in each case.

Regarding `CC(C)(C)n1ccc(C(=O)NCC(=O)Nc2nc(-c3cccc(-c4ccncn4)c3)cs2)c1` [Compound 84, 1-(tert-butyl)-N-(2-oxo-2-((4-(3-(pyrimidin-4-yl)phenyl)thiazol-2-yl)amino)ethyl)-1H-pyrrole-3-carboxamide], the values for the IC50 in test [1] and in test [2] were less than 0.01 µM and more than 0.01 µM, respectively.

Consider `C[C@@H]1CN(c2cccc(-c3csc(NC(=O)CNC(=O)c4ccn(S(C)(=O)=O)c4)n3)c2)C[C@@H](C)O1` [Compound 85, N-(2-((4-(3-((2R, 6R)-2,6-dimethylmorpholino)phenyl)thiazol-2-yl)amino)-2-oxoethyl)-1-(methylsulfonyl)-1H-pyrrole-3-carboxamide], for which the IC50 in test [1] and in test [2] was less than 0.01 µM in each case.

For the compound `C[C@H]1CN(c2cccc(-c3csc(NC(=O)CNC(=O)c4ccn(S(C)(=O)=O)c4)n3)c2)C[C@H](C)O1` [Compound 86, N-(2-((4-(3-((2S, 6S)-2,6-dimethylmorpholino)phenyl)thiazol-2-yl)amino)-2-oxoethyl)-1-(methylsulfonyl)-1H-pyrrole-3-carboxamide], the IC50 in test [1] and in test [2] was less than 0.01 µM throughout.

For `C[C@H]1CN(c2cccc(-c3csc(NC(=O)CNC(=O)c4ccn(S(C)(=O)=O)c4)n3)c2)CCO1` [Compound 87, (S)—N-(2-((4-(3-(2-methylmorpholino)phenyl)thiazol-2-yl)amino)-2-oxoethyl)-1-(methylsulfonyl)-1H-pyrrole-3-carboxamide], the IC50 in test [1] and in test [2] was less than 0.01 µM in each case.

On to `C[C@@H]1CN(c2cccc(-c3csc(NC(=O)CNC(=O)c4ccn(S(C)(=O)=O)c4)n3)c2)CCO1` [Compound 88, (R)—N-(2-((4-(3-(2-methylmorpholino)phenyl)thiazol-2-yl)amino)-2-oxoethyl)-1-(methylsulfonyl)-1H-pyrrole-3-carboxamide], for which the IC50 in test [1] and in test [2] was less than 0.01 µM in each case.

Consider `CC1(C)CN(c2cccc(-c3csc(NC(=O)CNC(=O)c4ccn(S(C)(=O)=O)c4)n3)c2)CCO1` [Compound 89, N-(2-((4-(3-(2,2-dimethylmorpholino)phenyl)thiazol-2-yl)amino)-2-oxoethyl)-1-(methylsulfonyl)-1H-pyrrole-3-carboxamide], for which the IC50 in test [1] and in test [2] was more than 0.01 µM in each case.

In the case of `C[C@@H]1CN(c2cccc(-c3csc(NC(=O)CNC(=O)c4ccn(C(C)(C)C)c4)n3)c2)C[C@H](C)O1` [Compound 90, 1-(tert-butyl)-N-(2-((4-(3-(cis-2,6-dimethylmorpholino)phenyl)thiazol-2-yl)amino)-2-oxoethyl)-1H-pyrrole-3-carboxamide], the IC50 in test [1] and in test [2] was less than 0.01 µM each time.

As to `COCC1CCN(c2cccc(-c3csc(NC(=O)CNC(=O)c4ccn(S(C)(=O)=O)c4)n3)c2)CC1` [Compound 91, N-(2-((4-(3-(4-(methoxymethyl)piperidin-1-yl)phenyl)thiazol-2-yl)amino)-2-oxoethyl)-1-(methylsulfonyl)-1H-pyrrole-3-carboxamide], the IC50 in test [1] is more than 0.01 µM; in test [2], more than 0.1 µM.

As for `COC[C@H]1CCCN(c2cccc(-c3csc(NC(=O)CNC(=O)c4ccn(S(C)(=O)=O)c4)n3)c2)C1` [Compound 92, (S)—N-(2-((4-(3-(3-(methoxymethyl)piperidin-1-yl)phenyl)thiazol-2-yl)amino)-2-oxoethyl)-1-(methylsulfonyl)-1H-pyrrole-3-carboxamide], the IC50 in test [1] and in test [2] was more than 0.01 µM each time.

Take `Cc1cn(-c2cccc(-c3csc(NC(=O)CNC(=O)c4ccn(S(C)(=O)=O)c4)n3)c2)cn1` [Compound 93, N-(2-((4-(3-(4-methyl-1H-imidazol-1-yl)phenyl)thiazol-2-yl)amino)-2-oxoethyl)-1-(methylsulfonyl)-1H-pyrrole-3-carboxamide]: the IC50 in test [1] and in test [2] was more than 0.01 µM in each case.

In the case of `CS(=O)(=O)n1ccc(C(=O)NCC(=O)Nc2nc(-c3cccc(N4CCC(O)CC4)c3)cs2)c1` [Compound 94, N-(2-((4-(3-(4-hydroxypiperidin-1-yl)phenyl)thiazol-2-yl)amino)-2-oxoethyl)-1-(methylsulfonyl)-1H-pyrrole-3-carboxamide], the IC50 in test [1] and in test [2] was less than 0.01 µM each time.

For `COC1CCN(c2cccc(-c3csc(NC(=O)CNC(=O)c4ccn(S(C)(=O)=O)c4)n3)c2)CC1` [Compound 95, N-[2-[[4-[3-(4-methoxy-1-piperidyl)phenyl]thiazol-2-yl]amino]-2-oxo-ethyl]-1-methylsulfonyl-pyrrole-3-carboxamide], the IC50 in test [1] and in test [2] was more than 0.01 µM throughout.

Regarding `COC1(C)CCN(c2cccc(-c3csc(NC(=O)CNC(=O)c4ccn(S(C)(=O)=O)c4)n3)c2)CC1` [Compound 96, N-(2-((4-(3-(4-methoxy-4-methylpiperidin-1-yl)phenyl)thiazol-2-yl)amino)-2-oxoethyl)-1-(methylsulfonyl)-1H-pyrrole-3-carboxamide], the IC50 in test [1] is more than 0.01 µM; in test [2], more than 0.1 µM.

For `CO[C@@H]1CCCN(c2cccc(-c3csc(NC(=O)CNC(=O)c4ccn(C(C)(C)C)c4)n3)c2)C1` [Compound 97, (R)-1-(tert-butyl)-N-(2-((4-(3-(3-methoxypiperidin-1-yl)phenyl)thiazol-2-yl)amino)-2-oxoethyl)-1H-pyrrole-3-carboxamide], the IC50 in test [1] and in test [2] was more than 0.1 µM each time.

As for `CO[C@H]1CCCN(c2cccc(-c3csc(NC(=O)CNC(=O)c4ccn(C(C)(C)C)c4)n3)c2)C1` [Compound 98, (S)-1-(tert-butyl)-N-(2-((4-(3-(3-methoxypiperidin-1-yl)phenyl)thiazol-2-yl)amino)-2-oxoethyl)-1H-pyrrole-3-carboxamide], the IC50 in test [1] and in test [2] was more than 0.01 µM in each case.

For `CS(=O)(=O)n1ccc(C(=O)NCC(=O)Nc2nc(-c3cccc(N4CCOCC4)c3)cs2)c1` [Compound 99, 1-methylsulfonyl-N-[2-[[4-(3-morpholinophenyl)thiazol-2-yl]amino]-2-oxo-ethyl]pyrrole-3-carboxamide], the IC50 in test [1] was less than 0.01 µM; in test [2], more than 0.01 µM.

`CC(C)(C)n1ccc(C(=O)NCC(=O)Nc2nc(-c3cccc(N4CCOCC4)c3)cs2)c1` [Compound 100, 1-tert-butyl-N-[2-[[4-(3-morpholinophenyl)thiazol-2-yl]amino]-2-oxo-ethyl]pyrrole-3-carboxamide]: the IC50 in test [1] and in test [2] was more than 0.01 µM each time.

On to `CS(=O)(=O)n1ccc(C(=O)NCC(=O)Nc2nc(-c3cccc(N4CC5(COC5)C4)c3)cs2)c1` [Compound 101, N-(2-((4-(3-(2-oxa-6-azaspiro[3.3]heptan-6-yl)phenyl)thiazol-2-yl)amino)-2-oxoethyl)-1-(methylsulfonyl)-1H-pyrrole-3-carboxamide], for which the IC50 in test [1] and in test [2] was less than 0.01 µM in each case.

On to `CC(C)(Oc1ccncc1)c1cccc(-c2csc(NC(=O)CNC(=O)c3ccn(S(C)(=O)=O)c3)n2)c1` [Compound 102, 1-(methylsulfonyl)-N-(2-oxo-2-((4-(3-(2-(pyridin-4-yloxy)propan-2-yl)phenyl)thiazol-2-yl)amino)ethyl)-1H-pyrrole-3-carboxamide], for which the IC50 in test [1] and in test [2] was more than 0.1 µM each time.
